Measurements taken from patent publication US12643867B2, “Compositions and uses thereof” (University of Virginia Patent Foundation, priority 2017, dated 2026).

Legend:
Format in all cases: binding
recombinant DGKα = target: T1, recombinant DGKα (Rattus norvegicus, UniProt P51556); test: Gel-based ATP acyl phosphate chemical proteomic assay; details: compounds 100 μM (ATP 1 mM; RF001 at indicated concentrations), 30 min; probe 10 μM
T1 construct: expressed in transfected cells; host or cells: HEK293T (SILAC HEK293T for LC-MS)
T1 sequence (P51556 whole entry): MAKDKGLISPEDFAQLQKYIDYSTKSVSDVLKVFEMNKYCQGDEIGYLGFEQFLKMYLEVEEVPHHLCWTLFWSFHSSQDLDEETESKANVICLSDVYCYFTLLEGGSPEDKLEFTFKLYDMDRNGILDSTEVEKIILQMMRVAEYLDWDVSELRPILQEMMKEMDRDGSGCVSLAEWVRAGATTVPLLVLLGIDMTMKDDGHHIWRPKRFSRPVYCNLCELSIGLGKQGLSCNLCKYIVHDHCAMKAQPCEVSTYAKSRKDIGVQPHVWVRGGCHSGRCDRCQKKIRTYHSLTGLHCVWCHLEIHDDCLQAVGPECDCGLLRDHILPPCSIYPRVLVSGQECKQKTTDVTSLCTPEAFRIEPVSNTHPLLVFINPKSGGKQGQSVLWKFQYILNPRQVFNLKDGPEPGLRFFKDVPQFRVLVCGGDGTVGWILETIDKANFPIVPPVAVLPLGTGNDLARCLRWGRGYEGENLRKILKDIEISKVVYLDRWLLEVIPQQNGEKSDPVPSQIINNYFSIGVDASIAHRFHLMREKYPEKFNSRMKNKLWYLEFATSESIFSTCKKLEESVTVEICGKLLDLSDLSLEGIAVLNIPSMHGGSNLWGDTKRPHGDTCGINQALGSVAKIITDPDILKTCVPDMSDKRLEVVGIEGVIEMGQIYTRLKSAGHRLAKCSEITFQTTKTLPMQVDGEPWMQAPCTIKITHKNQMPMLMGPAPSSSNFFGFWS
Procedure: Cell pellets were resuspended in kinase buffer (Dulbecco's PBS (DPBS, Hyclone), 20 mM MgCl2, EDTA-free protease inhibitors (Pierce)) and then lysed by sonication (3×1 sec pulse, 20% amplitude). The cell lysates were then subjected to centrifugation (100,000×g, 45 min at 4° C.) to isolate the cytosolic fraction in the supernatant and the membrane fraction as a pellet. The membrane pellet was resuspended in kinase buffer by sonication. […] The only exception was experiments involving DGKE; recombinant DGKE protein was most prominently expressed in the membrane fraction and so this fraction was utilized to study DGKE enzyme (see FIG. 8). Protein concentrations were measured using the Bio-Rad DC protein assay. Samples were stored at −80° C. until use.
Proteome concentration was adjusted to 2 mg/mL in kinase buffer. Proteomes were first pre-treated with compound (0.6 μL, 50× stock in DMSO) mixed with gentle flicking, and incubated for 30 min at 25° C. in a microfuge tube (30 μL reaction volume). […] Reactions were then quenched with 10 AL of 4×SDS-PAGE loading buffer. Protein samples (15 μL) were loaded onto 4-20% TGX Stain-Free Protein Midi Gel and resolved by SDS-PAGE at 150V for 55 min. Proteins were then transferred to a nitrocellulose blot by Bio-Rad Trans-Blot Turbo Transfer System (25V. 10 min) to enhance sensitivity. The nitrocellulose blot was then incubated in blocking solution (30 mL, 3% BSA in TBS-T) for 1 h at 25° C. with gentle shaking. The blot was then transferred immediately to antibody solution (30 mL, 5% BSA in ddH2O with 0.1% Tween20 and 1:3000 Streptavidin DyLight 550) and incubated for 2 h at 25° C. with gentle shaking. The blot was then rinsed 5 times for 5 min in TBS-T. and then transferred into ddH2O. The blot was then imaged by in-blot fluorescence scanning on a ChemiDoc MP Imaging System. Fluorescence intensity signals were normalized to total lane protein using the Bio-rad Stain Free imaging (Posch et al., 2013).
The percentage of enzyme activity remaining was determined by comparing integrated band intensities or luminescence of inhibitor—with DMSO-treated samples for gel-based chemical proteomic or ADP-glo assays, respectively. For both chemical proteomic and ADP-glo methods, nonlinear regression analysis was used to determine the IC50 values from a dose-response curve generated using GraphPad Prism. Data are shown as mean±s.e.m. Determination of significance was performed by one-way ANOVA. All statistical analyses were performed using GraphPad Prism.

[1] = target: T2, DGKA (Diacylglycerol kinase alpha) (Rattus norvegicus, UniProt P51556); test: SILAC LC-MS ATP acyl phosphate probe competition, recombinant DGK-HEK293T lysates
T2 construct: expressed in transfected cells; host or cells: HEK293T (SILAC HEK293T for LC-MS)
T2 sequence (P51556 whole entry): as above
Procedure: All other vectors were gifted to Dr. Kevin Lynch (University of Virginia, School of Medicine) by Dr. Kaoru Goto (Yamagata University, School of Medicine) and Dr. Fumio Sakane (Chiba University) and were kindly shared with us: pcDNA3-FLAG-DGKA (rat), pCMV-Tag2B-FLAG-DGKQ (human), pcDNA3-DGKE-3×Flag (human), and pCMV-SPORT6-HA-DGKZ (human). HEK293T cells were plated at a concentration of 400,000 cells in complete DMEM and grown to 50-60% confluency. A polyethyleneimine (PEI) stock solution was prepared (1 mg/mL, pH 7.4) and filter sterilized. Serum-free DMEM (600 μL) was mixed gently with 2.6 μg DNA and 20 μL of sterile PEI (1 mg/mL, pH 7.4) in a sterile microfuge tube. Mixtures were incubated for 30 min at 25° C. The mixture was then added drop-wise to each 10 cm^2 plate, rocked back and forth to mix, and placed back in the incubator. Cell pellets were harvested after two full days of growth, snap-frozen in liquid N2, and stored at −80° C. until use. Recombinant proteins were produced by transient transfection in SILAC HEK293T cells using the procedure described above, except that cells were plated at a concentration of 1×10^6 cells per 10 cm^2 plate and grown to ˜70% confluency prior to introducing transfection mixture.
Proteomes were diluted to 2 mg/ml in kinase buffer. The light and heavy proteomes (0.5 mg, 250 μL total reaction volume) were pre-treated with vehicle or compound, respectively (5 μL, DMSO (light) or 50× stock in DMSO (heavy)), mixed gently, and incubated at 25° C. for 30 min. […] After incubation, matched light and heavy proteomes were transferred and mixed in a 1:1 ratio in a two-dram vial containing 4:1:3 MeOH/CHCl3/H2O (2 mL MeOH, 500 AL CHCl3, 1.5 mL H2O) for extraction of proteins to remove excess probe, quickly vortexed, and centrifuged at 1,400×g for 3 min to pellet protein. Organic and aqueous layers were removed using a Pasteur pipette, and the protein pellet was transferred to a screw-top tube in 600 μL MeOH. A second extraction was performed by adding CHCl3 (150 μL) and H2O (600 μL) to each sample, vortexed, and centrifuged at 1,400×g for 3 min to pellet protein. Organic and aqueous layers were removed by pipetting. MeOH added to pellet (600 μL) and pellets were re-suspended by sonication (3×1 sec pulse, 20% amplitude) for a final extraction. Samples were then centrifuged at 17,000×g for 5 min to pellet protein and MeOH was removed by pipetting. […] To desalt the samples, each was transferred to a two-dram glass vial, and to the vial 4:1:2 MeOH/CHCl3/H2O (2 mL MeOH, 500 AL CHCl3, 1 mL H2O) was added. The vials were vortexed quickly, spun at 1.400×g for 3 min to pellet protein, and aqueous and organic layers were removed using a Pasteur pipette. The resulting protein pellet was transferred to a screw-top tube in 600 μL MeOH, and then CHCl3 (150 μL) and HO (600 μL) were added to extract protein a second time. The samples were vortexed quickly, centrifuged at 1,400×g to pellet protein, and the aqueous and organic layers were removed by pipetting. Resulting protein pellet was suspended in MeOH (600 μL) via sonication (3×1 sec pulse, 20% amplitude), centrifuged at 17,000×g for 5 min to pellet protein, and MeOH removed by pipetting. Protein pellets were then re-suspended in 25 mM ammonium bicarbonate (500 μL) and digested with 7.5 μg Trypsin/Lys-C(Promega, 15 μL, 0.5 μg/μL) for 3 h at 37° C. Avidin-agarose beads (Thermo Scientific Pierce, 100 AL aliquot per sample) were washed three times by adding 10 mL DPBS, centrifuged at 1,400×g for 1 min, and decanting. This wash step was repeated for a total of 3 times. Digested protein samples were mixed with washed avidin beads (100 μL) and brought to a volume of 5.5 mL with DPBS in a 15 mL conical and rotated for 1 h to enrich samples for the covalent desthiobiotin modification. The beads were washed with 25 mM ammonium bicarbonate (3× with 10 mL, centrifuge at 1,400×g for 3 min, decant) and then H2O (3× with 10 mL, centrifuge at 1,400×g for 3 min, decant).

[2] = target: T3, hDGKa C1 domain cysteines (Homo sapiens, UniProt P23743); test: JWB003 labeling competition in vitro
T3 construct: expressed in transfected cells; host or cells: HEK293T
T3 sequence (P23743 whole entry, the tested form may be a part): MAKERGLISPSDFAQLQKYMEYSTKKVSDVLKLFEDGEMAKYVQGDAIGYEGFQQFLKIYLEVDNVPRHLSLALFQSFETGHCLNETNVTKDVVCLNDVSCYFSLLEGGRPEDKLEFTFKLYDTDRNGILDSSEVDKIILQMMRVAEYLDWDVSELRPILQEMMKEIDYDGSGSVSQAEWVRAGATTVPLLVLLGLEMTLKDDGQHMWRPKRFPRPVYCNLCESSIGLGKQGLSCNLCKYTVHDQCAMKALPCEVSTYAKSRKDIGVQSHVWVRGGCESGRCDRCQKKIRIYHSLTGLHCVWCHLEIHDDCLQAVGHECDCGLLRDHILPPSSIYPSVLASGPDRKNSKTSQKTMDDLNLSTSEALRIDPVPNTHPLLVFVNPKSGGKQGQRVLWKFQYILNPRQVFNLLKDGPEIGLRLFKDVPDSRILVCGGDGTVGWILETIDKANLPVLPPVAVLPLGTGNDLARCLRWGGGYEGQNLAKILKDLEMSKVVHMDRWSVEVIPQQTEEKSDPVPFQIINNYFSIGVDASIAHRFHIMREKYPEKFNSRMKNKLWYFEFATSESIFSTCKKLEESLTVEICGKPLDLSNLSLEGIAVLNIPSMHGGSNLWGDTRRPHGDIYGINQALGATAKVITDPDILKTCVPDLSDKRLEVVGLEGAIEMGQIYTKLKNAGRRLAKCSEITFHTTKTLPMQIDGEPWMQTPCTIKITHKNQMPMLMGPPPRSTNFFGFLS
Procedure: • 1. HEK293T cells were harvested in cold PBS. • a. Cells were transferred to Eppendorf tube. • 2. Cells were lysed via tip sonicator. • 3. Cells were fractionated into membrane and soluble fraction. • a. 100,000×G for 45 minutes at 4 degree. • b. Supernatant was separated from cell pellet. • 4. Dilute proteomes to 1 mg/mL in PBS and aliquot appropriate reaction volume (49 μL for probe only; 48 μL for competition+probe) • 5. Cells were treated with 50× inhibitor. • a. Incubated for 1Hr at 37 degree. • 6. Cells were treated with 50× Probe (JWB003). • a. Incubated for 1Hr at 37 degree. • 7. Add 6 μL of master mix to each alkyne probe-labeled sample. • a. 1 μL of 1.25 mM Rh-N3 • b. 1 μL of fresh 50 mM TCEP • c. 3 μL of 1.7 mM TBTA stock • d. 1 μL of 50 mM CuSO4 • 8. Vortex samples. • 9. Incubate at room temperature for 1 hr • 10. Quench with 17 μL of 4×SDS-PAGE loading buffer+βME and vortex tubes. • 11. Analyze 30 μL samples by SDS-PAGE immediately. [B] Labeling HEK293T Cells to Determine Target Proteins of JWB003 in Live Cells (In Situ) • 1. Complete media was removed from HEK293T cells and replaced with serum free media containing JWB003 at the appropriate final concentration • a. Cells were placed in incubator for appropriate time at 37 degree 5% CO2 • 2. Cells were washed • a. 2× warm PBS • b. 2× cold PBS • c. Harvest cells in cold PBS • 3. Cells were transferred to Eppendorf tube • 4. Cells were lysed via tip sonicator • 5. Cells were fractionated into membrane and soluble fraction • a. 100,000×G for 45 minutes at 4 degrees • b. Supernatant was separated from cell pellet. • 6. Dilute proteomes to 1 mg/mL and aliquot appropriate reaction volume (50 μL) • 7. Add 6 μL of master mix to each alkyne probe-labeled sample. • a. 1 μL of 1.25 mM Rh-N3 • b. 1 μL of fresh 50 mM TCEP • c. 3 μL of 1.7 mM TBTA stock • d. 1 μL of 50 mM CuSO4 • 8. Vortex samples. • 9. Incubate at room temperature for 1 hr. • 10. Quench with 17 μL of 4×SDS-PAGE loading buffer+βME and vortex tubes. • 11. Analyze 30 μL samples by SDS-PAGE immediately. [C] […]

Compound	blockade of DGKα ATP probe labeling (recombinant DGKα)	competition at probe-modified peptides from DAGKc and DAGKa subdomains of DGKα ([1]; ATP 1 mM) [%]	inhibition at 1000 µM ([1]; read-out: inhibition of probe labeling at DGKα C1 site (K237)) [%]	inhibition of JWB003 probe labeling of hDGKa [2]
Nc1ncnc2c1ncn2[C@@H]1O[C@H](COP(=O)(O)OP(=O)(O)OP(=O)(O)O)[C@@H](O)[C@H]1O [ATP, adenosine triphosphate]	global reductions in fluorescent protein signals	~94	~58	–
CCCCCCCCCCCCCC(=O)O[C@@H]1[C@@H](C)[C@@]2(O)[C@@H](C=C(CO)C[C@]3(O)C(=O)C(C)=C[C@@H]23)[C@@H]2C(C)(C)[C@]12OC(C)=O [PMA]	–	–	–	Probe labeling is inhibited
NC(=O)CI [iodoacetamide]	–	–	–	labeling is inhibited
